Values of other authors, collected in patent EP3933036B1, “PROCESS FOR 7-BETA-HYDROXYLATION OF BILE ACID DERIVATIVES” (MICROMUN Institut für Mikrobiologische Forschung GmbH, priority 2020, dated 2022).

Details: at 298 K
For `C[S+](C)[O-]` [DMSO], the “octanol/water partition coefficient (KOW)” value is listed as 2. In the case of `CC#N` [acetonitrile], the “octanol/water partition coefficient (KOW)” value is given as 2. In the case of `CCOC(C)=O` [ethyl acetate], the “octanol/water partition coefficient (KOW)” value is given as 11.
